{"source": "patent US20060281700A1", "about": "“SYNERGISTIC MODULATION OF FLT3 KINASE USING AMINOPYRIMIDINES KINASE MODULATORS” (priority 2005, published 2006)", "key": {"[1]": {"test_system": "Baf3-FLT3 cells stimulated with 100 ng/ml FLT ligand", "experiment": "Cell proliferation assay, single agents and FTI/FLT3 inhibitor combinations, Baf3-FLT3", "format": "cell-based, murine", "protocol": "(§1) The cell lines that were tested included those that are dependent on FLT3ITD mutant activity for growth (MV4-11 and Baf3-FLT3ITD), FLT3 wt activity for growth (Baf3FLT3) and those that grow independent of FLT3 activity (THP-1). […] Baf3-FLT3 and Baf3-FLT3ITD cell lines were obtained from Dr. Michael Henrich and the Oregon Health Sciences University. The Baf3 FLT3 cell lines were created by stable transfection of parental Baf3 cells (a murine B cell lymphoma line dependent on the cytokine IL-3 for growth) with either wild-type FLT3 or FLT3 containing the ITD insertion in the juxatamembrane domain of the receptor resulting in its constitutive activation. Cells were selected for their ability to grow in the absence of IL-3 and in either the presence of FLT3 ligand (Baf3-FLT3) or independent of any growth factor (Baf3-ITD). […]\n(§2) Dose responses for the individual compounds alone were determined for each cell line using a standard 72-hour cell proliferation assay (see FIGS. 6.1-6.8). […]\nTo statistically evaluate the synergy of a FLT3 inhibitor and an FTI in FLT3 dependent cell lines, dosing combinations were evaluated by the method of Chou and Talalay. See Chou T C, Talalay P. (1984) “Quantitative analysis of dose-effect relationships: the combined effects of multiple drugs or enzyme inhibitors.” Adv Enzyme Regul. […] Using this method, multiple FTI and FLT3 combinations were evaluated. […]"}, "[2]": {"test_system": "cells that depend on FLT3 for growth", "experiment": "Standard 72-hour cell proliferation assay, FLT3 dependent cell lines taken together", "format": "cell-based", "settings": "72-hour proliferation; depending on the cell type", "protocol": "as §1, §2\nCell proliferation assay for MV4-11, Baf3-ITD, Baf3-FLT3 and THP-1 cells. […] Total cell growth is quantified as the difference in luminescent counts (relative light units, RLU) of cell number at Day 0 compared to total cell number at Day 3 (72 hours of growth and/or compound treatment). One hundred percent inhibition of growth is defined as an RLU equivalent to the Day 0 reading. […]"}}}
{"smiles": "Cn1cncc1C(N)(c1ccc(Cl)cc1)c1ccc2c(c1)c(-c1cccc(Cl)c1)cc(=O)n2C", "note": "(single isomer, unassigned; (+)) [Tipifarnib, (+)-6-[amino(4-chlorophenyl)(1-methyl-1H-imidazol-5-yl)methyl]-4-(3-chlorophenyl)-1-methyl-2(1H)-quinolinone]", "values": [{"measurement": "increase in potency of Tipifarnib with a single sub-IC50 dose of FLT3 inhibitor Compound A", "setting": "[1]; Baf3-FLT3, Compound A 100 nM", "value": "more than 3 fold"}, {"measurement": "IC50", "setting": "[1]; Mus musculus, Baf3-FLT3 proliferation, FTI alone or in the combination named", "value": 1.85, "unit": "nM"}, {"measurement": "single agent potency for inhibition of proliferation", "setting": "[2]", "value": "high nanomolar to high picomolar range"}]}
